Here are results for 2 compounds from patent publication US6635651B2, “Inhibitors of thrombin induced platelet aggregation” (Parker Hughes Institute, priority 1999, dated 2003).

The structures appear in SMILES notation.

Broadly, the IC50 is the concentration that gives 50% inhibition.

This assay has as its system thrombin induced platelet aggregation. The assay can be described thus: Thrombin induced platelet aggregation (Chronolog aggregometer). The conditions noted are these: 0.1 U/ml thrombin. The format is cell-based. As to the method:
Platelets treated with 100 μM WHI-P131 or the parent compound, WHI-P258 (negative control), were stimulated with 0.1 U/ml thrombin or 10 μg/ml collagen. WHI-P131 is described above, WHI-P258 is an unsubstituted quinazoline and structurally shown below.
Platelet aggregation with respect to control was monitored in a Chronolog Model 560 Dual Chamber Platelet Aggregometer. […] WHI-P258 had no effect on the thrombin response (FIG. 1C).
Platelets treated with varying concentrations of WHI-P131 or WHI-P258 (negative control) were stimulated with 0.1 U/ml thrombin. Platelet aggregation with respect to control was monitored in a Chronolog Model 560 Dual Chamber Platelet Aggregometer. […] The results are charted in FIG. 2.

The compound `COc1cc2ncnc(Nc3ccc(O)cc3)c2cc1OC` [WHI-P131, 4-(4′-Hydroxyphenyl)-amino-6,7-dimethoxyquinazoline] displayed an IC50 (Platelet, varying concentrations) of 1500 nM. As for `COc1cc2ncnc(Nc3ccccc3)c2cc1OC` [WHI-P258, 4-(phenyl)-amino-6,7-dimethoxyquinazoline], the “effect on thrombin induced platelet aggregation” value (100 μM) is given as “no effect”.
